Test results published in the Kinase Knowledgebase extract (Sharma et al. 2016).

What follows are molecules tested against PIK3CG (human) (UniProt P48736) (assay: Assessment of PIK3CG Kinase Activity).
PIK3CG (human), sequence (P48736 whole entry, looked up): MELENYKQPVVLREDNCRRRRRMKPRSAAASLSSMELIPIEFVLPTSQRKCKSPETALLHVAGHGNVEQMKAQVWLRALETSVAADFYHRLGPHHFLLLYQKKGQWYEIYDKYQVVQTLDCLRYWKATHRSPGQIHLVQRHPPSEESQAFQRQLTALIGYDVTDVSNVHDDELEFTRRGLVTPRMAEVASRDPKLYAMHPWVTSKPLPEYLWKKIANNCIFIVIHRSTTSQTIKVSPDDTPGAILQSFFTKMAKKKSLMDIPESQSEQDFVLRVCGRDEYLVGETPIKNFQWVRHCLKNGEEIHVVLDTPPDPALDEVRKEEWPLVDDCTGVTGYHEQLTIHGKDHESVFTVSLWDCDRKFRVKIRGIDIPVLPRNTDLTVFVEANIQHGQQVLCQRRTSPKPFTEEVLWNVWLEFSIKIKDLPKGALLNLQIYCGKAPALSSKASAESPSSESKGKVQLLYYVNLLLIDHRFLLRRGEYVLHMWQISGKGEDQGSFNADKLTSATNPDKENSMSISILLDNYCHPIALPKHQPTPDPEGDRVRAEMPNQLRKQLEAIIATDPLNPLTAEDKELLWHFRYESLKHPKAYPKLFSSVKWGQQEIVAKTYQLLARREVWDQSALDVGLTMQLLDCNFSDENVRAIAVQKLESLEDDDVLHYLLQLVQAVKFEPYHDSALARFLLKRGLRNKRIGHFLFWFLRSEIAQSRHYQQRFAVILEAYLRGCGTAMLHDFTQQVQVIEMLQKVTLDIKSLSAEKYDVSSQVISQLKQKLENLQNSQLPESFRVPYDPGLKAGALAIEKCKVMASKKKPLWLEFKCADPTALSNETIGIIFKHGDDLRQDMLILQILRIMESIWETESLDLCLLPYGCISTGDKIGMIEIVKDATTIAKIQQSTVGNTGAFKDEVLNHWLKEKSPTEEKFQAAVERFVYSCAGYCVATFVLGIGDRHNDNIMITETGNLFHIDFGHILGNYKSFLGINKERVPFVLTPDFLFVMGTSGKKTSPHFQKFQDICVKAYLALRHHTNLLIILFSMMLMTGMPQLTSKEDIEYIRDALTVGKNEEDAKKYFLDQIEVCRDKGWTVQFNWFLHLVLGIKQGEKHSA

Row | Compound | IC50 [µM]
1 | CCCC(=O)n1ncc2c1-c1sc(NC(C)=O)nc1CC2 | < 0.8
2 | CC(=O)Nc1nc2c(s1)-c1c(c(C(=O)N(C)CCO)nn1-c1ccccc1)CC2 | < 0.8
3 | CC(=O)Nc1nc2c(s1)-c1c(c(C(=O)NCCO)nn1-c1ccccc1Cl)CC2 | < 0.8
4 | CC(=O)Nc1nc2c(s1)-c1c(c(C(=O)O)nn1-c1ccccc1Cl)CC2 | < 0.8
5 | CN1CCN(C(=O)Nc2nc3c(s2)-c2nc(-c4ccccc4)ncc2CC3)CC1 | < 0.8
6 | O=CNc1nc2c(s1)-c1nc(-c3ccccc3)ncc1CC2 | < 0.8
7 | CC(=O)Nc1nc2c(s1)-c1c(cnn1-c1ccccc1)C2 | < 0.8
8 | COCc1nn(-c2ccccc2C(F)(F)F)c2c1CCc1nc(NC(C)=O)sc1-2 | < 0.8
9 | CC(=O)Nc1nc2c(s1)-c1c(c(-c3ccccc3)nn1-c1ccccc1C)CC2 | < 0.8
10 | COc1cccc(-n2ncc3c2-c2sc(NC(C)=O)nc2CC3)c1 | < 0.8
11 | CC(=O)Nc1nc2c(s1)-c1c(c(C)nn1-c1ccccc1C(F)(F)F)CC2 | < 0.8
12 | CC(=O)Nc1nc2c(s1)-c1c(cnn1-c1ccc3cn[nH]c3c1)CC2 | < 0.8
13 | CC(=O)Nc1nc2c(s1)-c1nc(N(CCN(C)C)C(C)=O)ncc1CC2 | < 0.8
14 | CC(=O)Nc1nc2c(s1)-c1c(c(C(C)C)nn1-c1ccc(C(=O)N[C@H]3CC[C@@H](N4CCCC4)CC3)cc1Cl)CC2 | < 0.8
15 | CC(=O)Nc1nc2c(s1)-c1c(cnn1-c1cccc(Cl)c1)C2 | < 0.8
16 | CC(=O)Nc1nc2c(s1)-c1nn(-c3ccc(C(=O)NC4CCN(C)CC4)cc3Cl)c(-c3ccco3)c1CC2 | < 0.8
17 | CC(=O)Nc1nc2c(s1)-c1c(cnn1CCc1ccccc1)CC2 | < 0.8
18 | CC(=O)Nc1nc2c(s1)-c1c(cnn1-c1ccc(C(=O)N[C@H]3CC[C@H](N4CCN(c5ccccc5)CC4)CC3)cc1)CC2 | < 0.8
19 | CC(=O)Nc1nc2c(s1)-c1nn(C(=O)c3ccccc3Cl)cc1CC2 | < 0.8
20 | CC(=O)Nc1nc2c(s1)-c1c(cnn1-c1ccc(C(=O)NCCCC(N)=O)cc1Cl)CC2 | < 0.8
21 | CC(=O)Nc1nc2c(s1)-c1c(cnn1C1CCN(C(=O)C(F)(F)F)CC1)CC2 | < 0.8
22 | CC(=O)Nc1nc2c(s1)-c1c(cnn1-c1ccc(S(C)(=O)=O)cc1)C2 | < 0.8
23 | COCc1nn(-c2ccc(C(=O)N[C@H]3CC[C@@H](N4CCCC4)CC3)cc2Cl)c2c1CCc1nc(NC(C)=O)sc1-2 | < 0.8

Row | Compound | IC50 [µM]
24 | NC(=O)Nc1nc2c(s1)-c1c(cnn1-c1ccccc1)C2 | < 0.8
25 | CC(=O)Nc1nc2c(s1)-c1c(cnn1-c1ccccc1Cl)CC2 | < 0.8
26 | CC(=O)Nc1nc2c(s1)-c1c(cnn1-c1ccc(C(=O)O)cc1Cl)CC2 | < 0.8
27 | CN(C)C(=O)Nc1nc2c(s1)-c1c(cnn1-c1ccccc1Cl)C2 | < 0.8
28 | CC(=O)Nc1nc2c(s1)-c1c(c(C(N)=O)nn1-c1ccccc1Cl)CC2 | < 0.8
29 | CC(=O)Nc1nc2c(s1)-c1c(c(-c3ccco3)nn1-c1ccc(Br)cc1C(F)(F)F)CC2 | < 0.8
30 | CC(=O)Nc1nc2c(s1)-c1c(cnn1C(C)C)CC2 | < 0.8
31 | CC(=O)Nc1nc2c(s1)-c1nc(-c3ccccc3Cl)ncc1CC2 | < 0.8
32 | CCNC(=O)Nc1nc2c(s1)-c1c(cnn1-c1ccccc1)CC2 | < 0.8
33 | CC(=O)Nc1nc2c(s1)-c1c(cnn1-c1ccc(Cl)cc1Cl)CC2 | < 0.8
34 | CNC(=O)Nc1nc2c(s1)-c1nc(N(C)C)ncc1CC2 | < 0.8
35 | CC(=O)Nc1nc2c(s1)-c1c(cnn1-c1c(Cl)cccc1Cl)CC2 | < 0.8
36 | CC(=O)Nc1nc2c(s1)-c1c(cnn1-c1ccc(C(=O)N[C@@H](Cc3cc4ccccc4[nH]3)C(N)=O)cc1Cl)CC2 | < 0.8
37 | CN(C)C(=O)Nc1nc2c(s1)-c1c(cnn1-c1ccccc1)CC2 | < 0.8
38 | CC(=O)Nc1nc2c(s1)-c1c(cnn1-c1ccccc1Br)CC2 | < 0.8
39 | CCS(=O)(=O)c1ncc2c(n1)-c1sc(NC(C)=O)nc1CC2 | < 0.8
40 | CC(=O)Nc1nc2c(s1)-c1c(c([C@H]3CCCO3)nn1-c1ccccc1)CC2 | < 0.8
41 | CC(=O)Nc1nc2c(s1)-c1nn(-c3ccccc3Cl)c(-c3ccco3)c1CC2 | < 0.8
42 | CCc1ccccc1-n1ncc2c1-c1sc(NC(C)=O)nc1C2 | < 0.8
43 | CC(=O)Nc1nc2c(s1)-c1c(c(-c3ccccn3)nn1-c1ccccc1C(F)(F)F)CC2 | < 0.8
44 | NCC#CCNC(=O)Nc1nc2c(s1)-c1c(cnn1-c1ccccc1)CC2 | < 0.8
45 | CC(C)c1nn(-c2ccccc2Cl)c2c1CCc1nc(NC(N)=O)sc1-2 | < 0.8

The remaining lines, values ahead:

Row | IC50 [µM] | Compound
46 | < 0.8 | CC(=O)Nc1nc2c(s1)-c1c(cnn1-c1ccc(CC(=O)N3CCCC(=O)CC3)cc1)CC2
47 | < 0.8 | CC(=O)Nc1nc2c(s1)-c1c(cnn1-c1ccc(S(=O)(=O)N3CCCCC3)cc1)CC2
48 | < 0.8 | CC(=O)Nc1nc2c(s1)-c1c(cnn1-c1ccc(Br)cc1)CC2
49 | < 0.8 | CCN(CC)CC1CCCCN1C(=O)c1ccc(-n2ncc3c2-c2sc(NC(C)=O)nc2CC3)cc1 (stereo unspecified)
50 | < 0.8 | CC(=O)Nc1nc2c(s1)-c1c(cnn1-c1ccc(CC(=O)NCCN3CCNC3=O)cc1)CC2
51 | < 0.8 | CC(=O)Nc1nc2c(s1)-c1c(cnn1-c1ccc(C)cc1)CC2
52 | < 0.8 | CC(=O)Nc1nc2c(s1)-c1c(cnn1-c1ccc(C(=O)N[C@H](Cc3ccc(O)cc3)C(N)=O)cc1)CC2
53 | < 0.8 | CC(=O)Nc1nc2c(s1)-c1c(cnn1-c1ccc(C(=O)N3CCC4(CCN(C)C4)C3)cc1)CC2 (stereo unspecified)
54 | < 0.8 | CC(=O)Nc1nc2c(s1)-c1c(cnn1-c1ccc(S(N)(=O)=O)cc1)CC2
55 | < 0.8 | CC(=O)Nc1nc2c(s1)-c1c(cnn1-c1ccc(C(=O)N[C@H]3CC[C@H](NC(=O)Cc4ccccc4)CC3)cc1)CC2
56 | < 0.8 | CC(=O)Nc1nc2c(s1)-c1c(cnn1-c1ccc(CC(=O)NC3CCOC3=O)cc1)CC2 (stereo unspecified)
57 | < 0.8 | CC(=O)Nc1nc2c(s1)-c1c(cnn1-c1ccc(CC(=O)N3CCNC(=O)C3)cc1)CC2
58 | < 0.8 | CC(=O)Nc1nc2c(s1)-c1c(cnn1-c1ccc(C(=O)N3CCc4[nH]cnc4C3)cc1)CC2
59 | < 0.8 | CC(=O)Nc1nc2c(s1)-c1c(cnn1-c1ccc(CC(=O)N3CCC(O)CC3)cc1)CC2
60 | < 0.8 | CC(=O)Nc1nc2c(s1)-c1c(cnn1-c1ccc(CC(=O)N3CCc4cn[nH]c4C3)cc1)CC2
61 | < 0.8 | CC(=O)Nc1nc2c(s1)-c1c(cnn1-c1ccc(C(=O)NCCCN3CCOCC3)cc1)CC2
62 | < 0.8 | CC(=O)Nc1nc2c(s1)-c1c(cnn1-c1ccc(CC(=O)NCc3nc4ccccc4n3C)cc1)CC2
63 | < 0.8 | CC(=O)Nc1nc2c(s1)-c1c(cnn1-c1ccc(C(=O)N3CCCC(CO)C3)cc1)CC2 (stereo unspecified)
64 | < 0.8 | CC(=O)Nc1nc2c(s1)-c1c(cnn1-c1ccc(C(=O)N[C@@H]3CCOC3=O)cc1)CC2
65 | < 0.8 | CC(=O)Nc1nc2c(s1)-c1c(cnn1-c1ccc(CC(=O)N(C)CC(=O)N3CCOCC3)cc1)CC2
66 | < 0.8 | CC(=O)Nc1nc2c(s1)-c1c(cnn1-c1ccc(C(=O)NC(C)CO)cc1)CC2 (stereo unspecified)
67 | < 0.8 | CC(=O)Nc1nc2c(s1)-c1c(cnn1-c1ccc(CC(=O)NCc3nc4ccccc4[nH]3)cc1)CC2
68 | < 0.8 | CC(=O)Nc1nc2c(s1)-c1c(cnn1-c1ccc(CC(=O)N(C)C)cc1)CC2
69 | < 0.8 | CC(=O)Nc1nc2c(s1)-c1c(cnn1-c1ccc(CC(=O)NCc3cnn(C)c3)cc1)CC2
70 | < 0.8 | CC(=O)Nc1nc2c(s1)-c1c(cnn1-c1ccc(O)c(Cl)c1)CC2
71 | < 0.8 | CC(=O)Nc1nc2c(s1)-c1c(cnn1-c1cccc(Cl)c1)CC2
